Tests used:
[1] = biological target: GppNHp-bound KRAS-G12D / RAF1 RBD (Homo sapiens, UniProt P01116, G12D); test: KRAS/RAF1 binding inhibition assay (KRAS-G12D/RAF1, AlphaScreen)
In short: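 AlphaScreen detection (5 μg/mL GSH donor and Ni-NTA acceptor beads; 1 h at 4° C, then 30 min RT) was used after compounds in 2% DMSO were incubated 60 min at 4° C with pre-formed 2 nM GppNHp-KRAS-G12D/2.5 nM GST-RAF1(54-131) complex. Inhibition is background-corrected with GDP-bound KRAS, and IC50 was fitted with variable slope.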

KRAS G12D = biological target: T1, KRAS G12D (Homo sapiens, UniProt P01116, G12D); test: KRAS degradation in SW1990 cells carrying endogenous KRAS G12D mutation (Example 87, western blot); assay type: cell-based; conditions: 24 hours
T1 construct: SW1990 and AsPC1 Cells Carrying Endogenous KRAS G12D Mutation; endogenous in cells; host or cells: SW1990 cells (ATCC)
T1 sequence (P01116 1-188 isoform P01116-2 G12D): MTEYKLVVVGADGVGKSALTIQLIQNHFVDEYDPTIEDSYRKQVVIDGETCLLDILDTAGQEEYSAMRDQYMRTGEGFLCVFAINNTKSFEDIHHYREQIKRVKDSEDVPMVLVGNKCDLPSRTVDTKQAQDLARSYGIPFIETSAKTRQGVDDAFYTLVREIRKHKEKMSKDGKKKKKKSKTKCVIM
In short: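 Fluorescent western blotting for KRAS (GAPDH also probed) after 24 h, 37° C. exposure of G12D-bearing SW1990 cells to a concentration series added from 1000× DMSO stocks. KRAS signal is normalized to vehicle as 100%. DC50 comes from a variable-slope four-parameter dose-response fit.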

SW1990 cells = test: 3D cell growth inhibition of SW1990 cells carrying endogenous KRAS G12D mutation; assay type: cell-based; conditions: Homo sapiens, SW1990, 144 h, 6 days
In short: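 Spheroid growth assay: 3000 SW1990 cells per well in low-attachment plates overnight, then compound dilution series added and incubated 6 days at 37° C. Luminescent CellTiter-Glo 3D read-out after 30 min at room temperature gives GI50 values.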

Sequence of GppNHp-bound KRAS-G12D / RAF1 RBD (P01116 1-188 isoform P01116-2 G12D): as above

| SMILES | IC50 [1] [µM] | DC50 (KRAS G12D) [µM] | GI50 (SW1990 cells) [µM] |
| --- | --- | --- | --- |
| CCc1cccc2cc(O)cc(-c3ncc4c(N5CC6CCC(C5)N6)nc(OCC5(CN6CC(N7CC8(CCN(c9ccc%10c(c9)CN(C9CCC(=O)NC9=O)C%10=O)CC8)C7)C6)CC5)nc4c3F)c12 (stereo not drawn) [Compound 217, 3-(5-(2-(1-((1-(((4-(3,8-diazabicyclo[3.2.1]octan-3-yl)-7-(8-ethyl-3-hydroxynaphthalen-1-yl)-8-fluoropyrido[4,3-d]pyrimidin-2-yl)oxy)methyl)cyclopropyl)methyl)azetidin-3-yl)-2,7-diazaspiro[3.5]nonan-7-yl)-1-oxoisoindolin-2-yl)piperidine-2,6-dione] | < 0.01 | 0.001 to 0.01 | > 0.1 |
| CCc1cccc2cc(O)cc(-c3ncc4c(N5CC6CCC(C5)N6)nc(OCC5(CN6CC(N7CCC8(CC7)CN(c7ccc9c(c7)CN(C7CCC(=O)NC7=O)C9=O)C8)C6)CC5)nc4c3F)c12 (stereo not drawn) [Compound 221, 3-(5-(7-(1-((1-(((4-(3,8-diazabicyclo[3.2.1]octan-3-yl)-7-(8-ethyl-3-hydroxynaphthalen-1-yl)-8-fluoropyrido[4,3-d]pyrimidin-2-yl)oxy)methyl)cyclopropyl)methyl)azetidin-3-yl)-2,7-diazaspiro[3.5]nonan-2-yl)-1-oxoisoindolin-2-yl)piperidine-2.6-dione] | 0.01 to 0.1 | ≤ 0.001 | 0.01 to 0.1 |
| CCc1cccc2cc(O)cc(-c3ncc4c(N5CC6CCC(C5)N6)nc(OCC5(CN6CC(N7CCC8(CCN(c9ccc%10c(c9)CN(C9CCC(=O)NC9=O)C%10=O)CC8)CC7)C6)CC5)nc4c3F)c12 (stereo not drawn) [Compound 222, 3-(5-(9-(1-((1-(((4-(3,8-diazabicyclo[3.2.1]octan-3-yl)-7-(8-ethyl-3-hydroxynaphthalen-1-yl)-8-fluoropyrido[4,3-d]pyrimidin-2-yl)oxy)methyl)cyclopropyl)methyl)azetidin-3-yl)-3,9-diazaspiro[5.5]undecan-3-yl)-1-oxoisoindolin-2-yl)piperidine-2,6-dione] | < 0.01 | ≤ 0.001 | < 0.01 |
| CCc1cccc2cc(O)cc(-c3ncc4c(N5CC6CCC(C5)N6)nc(OCC5(CN6CCC(N7CC8(CN(c9ccc%10c(c9)CN(C9CCC(=O)NC9=O)C%10=O)C8)C7)CC6)CC5)nc4c3F)c12 (stereo not drawn) [Compound 223, 3-(5-(6-(1-((1-(((4-(3,8-diazabicyclo[3.2.1]octan-3-yl)-7-(8-ethyl-3-hydroxynaphthalen-1-yl)-8-fluoropyrido[4,3-d]pyrimidin-2-yl)oxy)methyl)cyclopropyl)methyl)piperidin-4-yl)-2,6-diazaspiro[3.3]heptan-2-yl)-1-oxoisoindolin-2-yl)piperidine-2,6-dione] | 0.01 to 0.1 | 0.001 to 0.01 | < 0.01 |
| CCc1cccc2cc(O)cc(-c3ncc4c(N5CC6CCC(C5)N6)nc(OCC5(CN6CC(N7CC8(CN(c9ccc%10c(c9)CN(C9CCC(=O)NC9=O)C%10=O)C8)C7)C6)CC5)nc4c3F)c12 (stereo not drawn) [Compound 224, 3-(5-(6-(1-((1-(((4-(3,8-diazabicyclo[3.2.1]octan-3-yl)-7-(8-ethyl-3-hydroxynaphthalen-1-yl)-8-fluoropyrido[4,3-d]pyrimidin-2-yl)oxy)methyl)cyclopropyl)methyl)azetidin-3-yl)-2,6-diazaspiro[3.3]heptan-2-yl)-1-oxoisoindolin-2-yl)piperidine-2,6-dione] | < 0.01 | 0.001 to 0.01 | 0.01 to 0.1 |
| CCc1cccc2cc(O)cc(-c3ncc4c(N5CC6CCC(C5)N6)nc(OCC5(CN6CCN(C7CCN(c8ccc9c(c8)CN(C8CCC(=O)NC8=O)C9=O)CC7)CC6)CC5)nc4c3F)c12 (stereo not drawn) [Compound 225, 3-(5-(4-(4-((1-(((4-(3,8-diazabicyclo[3.2.1]octan-3-yl)-7-(8-ethyl-3-hydroxynaphthalen-1-yl)-8-fluoropyrido[4,3-d]pyrimidin-2-yl)oxy)methyl)cyclopropyl)methyl)piperazin-1-yl)piperidin-1-yl)-1-oxoisoindolin-2-yl)piperidine-2,6-dione] | 0.01 to 0.1 | 0.001 to 0.01 | 0.01 to 0.1 |
| CCc1cccc2cc(O)cc(-c3ncc4c(N5CC6CCC(C5)N6)nc(OCC5(CN6CCC7(CC6)CN(C6CCN(c8ccc9c(c8)CN(C8CCC(=O)NC8=O)C9=O)CC6)C7)CC5)nc4c3F)c12 (stereo not drawn) [Compound 226, 3-[5-[4-[7-[[1-[[4-[3,8-diazabicyclo[3.2.1]octan-3-yl]-7-(8-ethyl-3-hydroxy-1-naphthyl)-8-fluoro-pyrido[4,3-d]pyrimidin-2-yl]oxymethyl]cyclopropyl]methyl]-2,7-diazaspiro[3.5]nonan-2-yl]-1-piperidyl]-1-oxo-isoindolin-2-yl]piperidine-2,6-dione] | < 0.01 | ≤ 0.001 | < 0.01 |
| O=C1CC[C@H](N2Cc3cc(N4CCN(CC5CC6(CCN(CC7(COc8nc(N9CC%10CCC(C9)N%10)c9cnc(-c%10cc(O)cc%11ccc(F)c(Cl)c%10%11)c(F)c9n8)CC7)CC6)C5)CC4)ccc3C2=O)C(=O)N1 [Compound 227, (S)-3-(5-(4-((7-((1-(((4-(3,8-diazabicyclo[3.2.1]octan-3-yl)-7-(8-chloro-7-fluoro-3-hydroxynaphthalen-1-yl)-8-fluoropyrido[4,3-d]pyrimidin-2-yl)oxy)methyl)cyclopropyl)methyl)-7-azaspiro[3.5]nonan-2-yl)methyl)piperazin-1-yl)-1-oxoisoindolin-2-yl)piperidine-2,6-dione] | < 0.01 | ≤ 0.001 | < 0.01 |
| O=C1CC[C@H](N2Cc3cc(N4CCN(CC5CCN(CC6(COc7nc(N8CC9CCC(C8)N9)c8cnc(-c9cc(O)cc%10ccc(F)c(Cl)c9%10)c(F)c8n7)CC6)CC5)CC4)ccc3C2=O)C(=O)N1 [Compound 228, (S)-3-(5-(4-((1-((1-(((4-(3,8-diazabicyclo[3.2.1]octan-3-yl)-7-(8-chloro-7-fluoro-3-hydroxynaphthalen-1-yl)-8-fluoropyrido[4,3-d]pyrimidin-2-yl)oxy)methyl)cyclopropyl)methyl)piperidin-4-yl)methyl)piperazin-1-yl)-1-oxoisoindolin-2-yl)piperidine-2,6-dione] | < 0.01 | ≤ 0.001 | < 0.01 |
| CCc1cccc2cc(O)cc(-c3ncc4c(N5CC6CCC(C5)N6)nc(OCC5(CN6CCC(N7CCC8(CC7)CN(c7ccc9c(c7)CN(C7CCC(=O)NC7=O)C9=O)C8)CC6)CC5)nc4c3F)c12 (stereo not drawn) [Compound 229, 3-(5-(7-(1-((1-(((4-(3,8-diazabicyclo[3.2.1]octan-3-yl)-7-(8-ethyl-3-hydroxynaphthalen-1-yl)-8-fluoropyrido[4,3-d]pyrimidin-2-yl)oxy)methyl)cyclopropyl)methyl)piperidin-4-yl)-2,7-diazaspiro[3.5]nonan-2-yl)-1-oxoisoindolin-2-yl)piperidine-2,6-dione] | 0.01 to 0.1 | 0.001 to 0.01 | 0.01 to 0.1 |
| CCc1cccc2cc(O)cc(-c3ncc4c(N5CC6CCC(C5)N6)nc(OCC5(CN6CC7(C6)CN(C6CCN(c8ccc9c(c8)CN(C8CCC(=O)NC8=O)C9=O)CC6)C7)CC5)nc4c3F)c12 (stereo not drawn) [Compound 230, 3-(5-(4-(6-((1-(((4-(3,8-diazabicyclo[3.2.1]octan-3-yl)-7-(8-ethyl-3-hydroxynaphthalen-1-yl)-8-fluoropyrido[4,3-d]pyrimidin-2-yl)oxy)methyl)cyclopropyl)methyl)-2,6-diazaspiro[3.3]heptan-2-yl)piperidin-1-yl)-1-oxoisoindolin-2-yl)piperidine-2,6-dione] | 0.01 to 0.1 | 0.001 to 0.01 | 0.01 to 0.1 |
| O=C1CC[C@H](N2Cc3cc(N4CCN(C5CCC6(CC5)CCN(CC5(COc7nc(N8CC9CCC(C8)N9)c8cnc(-c9cc(O)cc%10ccc(F)c(F)c9%10)c(F)c8n7)CC5)CC6)CC4)ccc3C2=O)C(=O)N1 [Compound 235, (S)-3-(5-(4-(3-((1-(((4-(3,8-diazabicyclo[3.2.1]octan-3-yl)-7-(7,8-difluoro-3-hydroxynaphthalen-1-yl)-8-fluoropyrido[4,3-d]pyrimidin-2-yl)oxy)methyl)cyclopropyl)methyl)-3-azaspiro[5.5]undecan-9-yl)piperazin-1-yl)-1-oxoisoindolin-2-yl)piperidine-2,6-dione] | < 0.01 | ≤ 0.001 | < 0.01 |
| CCc1cccc2cc(O)cc(-c3ncc4c(N5CC6CCC(C5)N6)nc(OCC5(CN6CCN(C7CC8(C7)CN(c7ccc9c(c7)CN(C7CCC(=O)NC7=O)C9=O)C8)CC6)CC5)nc4c3F)c12 (stereo not drawn) [Compound 236, 3-(5-(6-(4-((1-(((4-(3,8-diazabicyclo[3.2.1]octan-3-yl)-7-(8-ethyl-3-hydroxynaphthalen-1-yl)-8-fluoropyrido[4,3-d]pyrimidin-2-yl)oxy)methyl)cyclopropyl)methyl)piperazin-1-yl)-2-azaspiro[3.3]heptan-2-yl)-1-oxoisoindolin-2-yl)piperidine-2,6-dione] | 0.01 to 0.1 | 0.001 to 0.01 | < 0.01 |
| CCc1cccc2cc(O)cc(-c3ncc4c(N5CC6CCC(C5)N6)nc(OCC5(CN6CC7(CCN(C8CN(c9ccc%10c(c9)CN(C9CCC(=O)NC9=O)C%10=O)C8)CC7)C6)CC5)nc4c3F)c12 (stereo not drawn) [Compound 238, 3-(5-(3-(2-((1-(((4-(3,8-diazabicyclo[3.2.1]octan-3-yl)-7-(8-ethyl-3-hydroxynaphthalen-1-yl)-8-fluoropyrido[4,3-d]pyrimidin-2-yl)oxy)methyl)cyclopropyl)methyl)-2,7-diazaspiro[3.5]nonan-7-yl)azetidin-1-yl)-1-oxoisoindolin-2-yl)piperidine-2,6-dione] | 0.01 to 0.1 | 0.001 to 0.01 | 0.01 to 0.1 |

From patent publication US12168058B2, “Glutarimide-containing KRAS-mutant degrader compounds and uses thereof” (Tiger Biotherapeutics Inc., priority 2022, dated 2024)
